Data from US11639343B2, “Compounds targeting and degrading BCR-ABL protein and its antitumor application” (ShanghaiTech University, priority 2019, dated 2023).
Read-outs that look alike come from different tables or passages of the source.

Key:
K562 (BCR-ABL+) cells = assay: CCK-8 proliferation inhibition, K562 cells; assay type: cell-based, human; conditions: read-out: Proliferative inhibitory activity (IC50, nM) K562 (BCR-ABL+);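 further: Ten-point threefold dilution series starting at 10 µM, absorbance at 450 nm after 2 h with CCK-8, DMSO as negative control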
U937 (BCR-ABL-) cells = assay: CCK-8 proliferation inhibition, U937 cells; assay type: cell-based, human; conditions: read-out: Proliferative inhibitory activity (IC50, nM) U937 (BCR-ABL-);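 further: Ten-point threefold dilution series, absorbance at 450 nm after 2 h with CCK-8 reagent, DMSO as negative control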
HEK293 (BCR-ABL-) cells = assay: CCK-8 proliferation inhibition, HEK293 cells; conditions: read-out: Proliferative inhibitory activity (IC50, nM) HEK293 (BCR-ABL-);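 further: Ten-point threefold dilution series starting at 10 µM, CCK-8 absorbance at 450 nm read after 2 h reagent incubation, DMSO-treated cells as negative control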
[1] = CCK-8, 48 hours of drug treatment, highest concentration 10 μM
[2] = Homo sapiens, K562, 48 h, CCK-8, 48 hours of drug treatment
[3] = Homo sapiens, U-937, CCK-8, 48 hours of drug treatment, highest concentration 10 μM

SMILES | IC50 (K562 (BCR-ABL+) cells; Homo sapiens, K562, 48 h) | IC50 (U937 (BCR-ABL-) cells; Homo sapiens, U-937, 48 h) | IC50 (K562 (BCR-ABL+) cells; CCK-8, 48 hours of drug treatment) | IC50 (U937 (BCR-ABL-) cells; [1]) | IC50 (K562 (BCR-ABL+) cells; [2]) | IC50 (U937 (BCR-ABL-) cells; [3]) | IC50 (HEK293 (BCR-ABL-) cells; [1]) | IC50 (HEK293 (BCR-ABL-) cells; Homo sapiens, HEK293, 48 h)
COc1cc(Nc2c(C#N)cnc3cc(OCCCN4CCN(C)CC4)c(OC)cc23)c(Cl)cc1Cl [Bosutinib, reference compound] | 29.6 nM | > 10000 nM |  |  |  |  |  | 
Cc1nc(Nc2ncc(C(=O)Nc3c(C)cccc3Cl)s2)cc(N2CCN(C(=O)COCCOCC(=O)N[C@H](C(=O)N3C[C@H](O)C[C@H]3C(=O)NCc3ccc(-c4scnc4C)cc3)C(C)(C)C)CC2)n1 [SIAIS151076, N-(2-chloro-6-methylphenyl)-2-((6-(4-(2-(2-(2-(((S)-1-((2S,4R)-4-hydroxy-2-((4-(4-methylthiazol-5-yl)benzyl)carbamoyl)pyrrolidin-1-yl)-3,3-dimethyl-1-oxobutan-2-yl)amino)-2-oxoethoxy)ethoxy)acetyl)piperazin-1-yl)-2-methylpyrimidin-4-yl)amino)thiazole-5-carboxamide] |  |  | 670 nM | > 10000 nM |  |  | > 10000 nM | 
Cc1nc(Nc2ncc(C(=O)Nc3c(C)cccc3Cl)s2)cc(N2CCN(C(=O)CCOCCOCCOCCC(=O)N[C@H](C(=O)N3C[C@H](O)C[C@H]3C(=O)NCc3ccc(-c4scnc4C)cc3)C(C)(C)C)CC2)n1 [SIAIS151077, N-(2-chloro-6-methylphenyl)-2-((6-(4-((S)-15-((2S,4R)-4-hydroxy-2-((4-(4-methylthiazol-5-yl)benzyl)carbamoyl)pyrrolidine-1-carbonyl)-16,16-dimethyl-13-oxo-4,7,10-trioxa-14-azaheptadecanoyl)piperazin-1-yl)-2-methylpyrimidin-4-yl)amino)thiazole-5-carboxamide] |  |  |  |  | 3430 nM | > 10000 nM |  | > 10000 nM

More lines, main results first:

IC50 (K562 (BCR-ABL+) cells; Homo sapiens, K562, 48 h) | IC50 (U937 (BCR-ABL-) cells; Homo sapiens, U-937, 48 h) | IC50 (K562 (BCR-ABL+) cells; CCK-8, 48 hours of drug treatment) | IC50 (U937 (BCR-ABL-) cells; [1]) | IC50 (K562 (BCR-ABL+) cells; [2]) | IC50 (U937 (BCR-ABL-) cells; [3]) | SMILES | IC50 (HEK293 (BCR-ABL-) cells; [1]) | IC50 (HEK293 (BCR-ABL-) cells; Homo sapiens, HEK293, 48 h)
 |  |  |  | 14.9 nM | > 10000 nM | Cc1nc(Nc2ncc(C(=O)Nc3c(C)cccc3Cl)s2)cc(N2CCN(C(=O)CCCCCOCCOCCOCCCCCC(=O)N[C@H](C(=O)N3C[C@H](O)C[C@H]3C(=O)NCc3ccc(-c4scnc4C)cc3)C(C)(C)C)CC2)n1 [SIAIS180147, N-(2-chloro-6-methylphenyl)-2-((6-(4-((S)-3-((2S,4R)-4-hydroxy-2-((4-(4-methylthiazol-5-yl)benzyl)carbamoyl)pyrrolidine-1-carbonyl)-2,2-dimethyl-5-oxo-11,14,17-trioxa-4-azatricosan-23-oyl)piperazin-1-yl)-2-methylpyrimidin-4-yl)amino)thiazole-5-carboxamide] |  | > 10000 nM
 |  |  |  | 12 nM | > 10000 nM | Cc1nc(Nc2ncc(C(=O)Nc3c(C)cccc3Cl)s2)cc(N2CCN(C(=O)CCCc3cn(CCCC(=O)N[C@H](C(=O)N4C[C@H](O)C[C@H]4C(=O)NCc4ccc(-c5scnc5C)cc4)C(C)(C)C)nn3)CC2)n1 [SIAIS164134, N-(2-chloro-6-methylphenyl)-2-((6-(4-(4-(1-(4-(((S)-1-((2S,4R)-4-hydroxy-2-((4-(4-methylthiazol-5-yl)benzyl)carbamoyl)pyrrolidin-1-yl)-3,3-dimethyl-1-oxobutan-2-yl)amino)-4-oxobutyl)-1H-1,2,3-triazol-4-yl)butanoyl)piperazin-1-yl)-2-methylpyrimidin-4-yl)amino)thiazole-5-carboxamide] |  | > 10000 nM
 |  |  |  | 14.4 nM | > 10000 nM | Cc1nc(Nc2ncc(C(=O)Nc3c(C)cccc3Cl)s2)cc(N2CCN(C(=O)CCCCCCCCCCCCC(=O)N[C@H](C(=O)N3C[C@H](O)C[C@H]3C(=O)NCc3ccc(-c4scnc4C)cc3)C(C)(C)C)CC2)n1 [SIAIS164193, N-(2-chloro-6-methylphenyl)-2-((6-(4-(14-(((S)-1-((2S,4R)-4-hydroxy-2-((4-(4-methylthiazol-5-yl)benzyl)carbamoyl)pyrrolidin-1-yl)-3,3-dimethyl-1-oxobutan-2-yl)amino)-14-oxotetradecanoyl)piperazin-1-yl)-2-methylpyrimidin-4-yl)amino)thiazole-5-carboxamide] |  | > 10000 nM
